The target in assay [1] is T1, ccCysS (Corallococcus sp. CA054B, UniProt A0A3A8HCN5).
T1 construct: gene D7V80_23740; codon-optimised gene in pSUMO, N-terminal SUMO tag cleaved with Ulp1; E. coli BL21(DE3) with pDB1282 and pBAD42-BtuCEDFB; monomer; TLS groups span residues 5 to 704
T1 sequence (A0A3A8HCN5 1-645): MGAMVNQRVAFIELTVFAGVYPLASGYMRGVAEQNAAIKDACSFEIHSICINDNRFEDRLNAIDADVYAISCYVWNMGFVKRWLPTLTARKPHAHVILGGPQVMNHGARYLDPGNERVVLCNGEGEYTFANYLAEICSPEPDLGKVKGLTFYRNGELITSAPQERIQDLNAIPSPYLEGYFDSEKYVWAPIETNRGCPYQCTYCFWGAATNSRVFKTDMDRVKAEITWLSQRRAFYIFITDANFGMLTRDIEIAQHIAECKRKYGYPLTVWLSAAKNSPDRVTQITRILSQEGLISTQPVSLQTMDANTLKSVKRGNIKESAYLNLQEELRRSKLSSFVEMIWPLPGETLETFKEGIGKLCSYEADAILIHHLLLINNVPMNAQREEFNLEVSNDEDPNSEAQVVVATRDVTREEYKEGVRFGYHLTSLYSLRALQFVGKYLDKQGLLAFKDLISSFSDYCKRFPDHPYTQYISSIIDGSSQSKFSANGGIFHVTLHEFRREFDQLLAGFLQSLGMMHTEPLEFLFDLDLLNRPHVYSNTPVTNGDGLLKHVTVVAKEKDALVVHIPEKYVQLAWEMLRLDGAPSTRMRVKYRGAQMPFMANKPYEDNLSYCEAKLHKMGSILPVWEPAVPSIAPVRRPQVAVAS
Nature of the assay: X-ray crystal structure, […] Å. It is filed as binding. Conditions: active site, one conformer; with Met, 5′dA, Cbl and [Fe4S4]; anoxic, pH 6.0.

The target in assay [2] is T1, ccCysS. As to the kind of experiment: X-ray crystal structure, […] Å. It is filed as binding. The conditions noted are these: active site, two conformers; with Met, 5′dA, Cbl and [Fe4S4]; anoxic, pH 6.0.
Assay [3] has as its target T2, ccCysS (Corallococcus sp. CA054B, UniProt A0A3A8HCN5, W271A).
T2 construct: gene D7V80_23740; codon-optimised gene in pSUMO, N-terminal SUMO tag cleaved with Ulp1; E. coli BL21(DE3) with pDB1282 and pBAD42-BtuCEDFB; monomer; TLS groups span residues 5 to 704
T2 sequence (A0A3A8HCN5 1-645 W271A): T1 sequence (A0A3A8HCN5 1-645)
As to the kind of experiment: LC-MS product quantification. Conditions: 500 µM SAM, 2 mM Ti(III) citrate, pH 7.5, room temperature. The class given is biochemical.

Assay [4] has as its target T3, cbCysS (Cystobacter sp. Cbv34, UniProt A0A0H4NV78).
T3 construct: gene cysS; codon-optimised gene in pSUMO, N-terminal SUMO tag cleaved with Ulp1; E. coli BL21(DE3) with pDB1282 and pBAD42-BtuCEDFB; monomer
T3 sequence (A0A0H4NV78 1-642): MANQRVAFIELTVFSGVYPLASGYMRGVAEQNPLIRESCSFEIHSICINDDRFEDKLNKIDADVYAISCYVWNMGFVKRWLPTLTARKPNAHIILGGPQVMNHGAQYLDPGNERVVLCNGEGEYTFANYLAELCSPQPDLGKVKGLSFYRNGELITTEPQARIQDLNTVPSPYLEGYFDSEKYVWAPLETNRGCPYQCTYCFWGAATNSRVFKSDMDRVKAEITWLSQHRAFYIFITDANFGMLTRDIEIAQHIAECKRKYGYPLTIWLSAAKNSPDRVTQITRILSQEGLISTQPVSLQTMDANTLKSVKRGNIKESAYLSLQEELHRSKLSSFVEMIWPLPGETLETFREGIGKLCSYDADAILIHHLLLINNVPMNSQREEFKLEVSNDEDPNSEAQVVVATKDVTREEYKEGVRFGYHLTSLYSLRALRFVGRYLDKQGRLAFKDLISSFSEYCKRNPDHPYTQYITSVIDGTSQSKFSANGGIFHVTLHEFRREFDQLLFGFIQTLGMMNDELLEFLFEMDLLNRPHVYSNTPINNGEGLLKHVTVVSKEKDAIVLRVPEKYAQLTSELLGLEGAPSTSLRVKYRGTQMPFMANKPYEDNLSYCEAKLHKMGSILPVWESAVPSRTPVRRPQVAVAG
Nature of the assay: LC-MS product quantification. It is filed as biochemical. The conditions noted are these: 500 µM SAM, 2 mM Ti(III) citrate, pH 7.5, room temperature.

Assay [5] has as its target T1, ccCysS. Nature of the assay: LC-MS product quantification. The class given is biochemical. The conditions noted are these: 500 µM SAM, 2 mM Ti(III) citrate, pH 7.5, room temperature.
The target of assay [6] is T4, ccCysS (Corallococcus sp. CA054B, UniProt A0A3A8HCN5, F485L).
T4 construct: gene D7V80_23740; codon-optimised gene in pSUMO, N-terminal SUMO tag cleaved with Ulp1; E. coli BL21(DE3) with pDB1282 and pBAD42-BtuCEDFB; monomer; TLS groups span residues 5 to 704
T4 sequence (A0A3A8HCN5 1-645 F485L): T1 sequence (A0A3A8HCN5 1-645)
As to the kind of experiment: LC-MS product quantification. It is filed as biochemical. The conditions noted are these: 500 µM SAM, 2 mM Ti(III) citrate, pH 7.5, room temperature.

Assay [7] concerns the target T5, ccCysS (Corallococcus sp. CA054B, UniProt A0A3A8HCN5, F485W).
T5 construct: gene D7V80_23740; codon-optimised gene in pSUMO, N-terminal SUMO tag cleaved with Ulp1; E. coli BL21(DE3) with pDB1282 and pBAD42-BtuCEDFB; monomer; TLS groups span residues 5 to 704
T5 sequence (A0A3A8HCN5 1-645 F485W): T1 sequence (A0A3A8HCN5 1-645)
As to the kind of experiment: LC-MS product quantification. Conditions: 500 µM SAM, 2 mM Ti(III) citrate, pH 7.5, room temperature. It is filed as biochemical.

The target in assay [8] is T6, ccCysS (Corallococcus sp. CA054B, UniProt A0A3A8HCN5, F485Y).
T6 construct: gene D7V80_23740; codon-optimised gene in pSUMO, N-terminal SUMO tag cleaved with Ulp1; E. coli BL21(DE3) with pDB1282 and pBAD42-BtuCEDFB; monomer; TLS groups span residues 5 to 704
T6 sequence (A0A3A8HCN5 1-645 F485Y): T1 sequence (A0A3A8HCN5 1-645)
As to the kind of experiment: LC-MS product quantification. It is filed as biochemical. Conditions: 500 µM SAM, 2 mM Ti(III) citrate, pH 7.5, room temperature.

The structures appear in SMILES notation.

`CCOc1cc(C(=O)OCCNC(=O)CCNC(=O)[C@H](O)C(C)(C)CO)ccc1N` [OEt, OEt substrate]: in assay [1], the “X-ray crystal structure, 2.00 Å” value was “Structures with the OMe or OEt substrates have well-defined substrate electron densities”.

On to `COc1cc(C(=O)OCCNC(=O)CCNC(=O)[C@H](O)C(C)(C)CO)ccc1N` [OMe, OMe substrate], for which the “X-ray crystal structure, 1.75 Å” value in assay [2] is “Structures with the OMe or OEt substrates have well-defined substrate electron densities”. Moreover, the LC-MS product quantification result in assay [3] was “changed to Ala, the variant shows much lower activity across all three methylations”; in assay [4], “In reactions using the OMe substrate, only the OEt and O^iPr products are detected”.

Consider `CC(C)Oc1cc(C(=O)OCCNC(=O)CCNC(=O)[C@H](O)C(C)(C)CO)ccc1N` [OiPr, O^iPr substrate], for which the LC-MS product quantification entry was “The O^sBu and O^tBu products are observed only when starting from the O^iPr substrate” in assay [5]; “The F485L variant, less bulky than wild-type (WT) ccCysS, produces methylated products in roughly equal amounts” in assay [6]; “F485Y and F485W yield fewer overall methylated products” in assay [7]; “F485Y and F485W yield fewer overall methylated products” in assay [8]; “The O^sBu and O^tBu products are observed only when starting from the O^iPr substrate” in assay [4].

For the origin of these results see article PMC12846815, “Structural basis for iterative methylation by a cobalamin-dependent radical S-adenosylmethionine enzyme in cystobactamids biosynthesis” (Proceedings of the National Academy of Sciences of the …, 2026).
